# Assays:
# [1] = test system: STZ-induced diabetic neuropathy model rat; test: STZ-induced diabetic neuropathy model rat, von Frey up-down stimulation method, 50% escape response threshold; assay type: in vivo; conditions: oral, compared with STZ control group
# Procedure: As one embodiment, the study was performed by administering the compound of the present invention to an STZ-induced diabetic neuropathy model rat, then giving a stimulus thereto by an up-down stimulation method, and calculating a 50% escape response threshold.
# A model was prepared by intravenously administering STZ as a diabetes-inducing substance to a rat. In a test, an animal that had developed diabetic neuropathy 35 days after STZ administration was used.
# On the day before administration of STZ and the day before administration of a test substance, about 100 μL of blood was collected from the tail vein using a winged injection needle equipped with a heparin-treated capillary. The obtained blood was centrifuged with a centrifuge [centrifugation conditions: 4° C., 3,000 rpm (×2,150 g), 15 min], and then plasma was obtained. The blood glucose level of the obtained plasma was measured using a hexokinase G-6-PDH method using an automatic biochemical analyzer. Note that the amount of the obtained plasma was very small, and therefore the measurement was performed by diluting the plasma 5 times with physiological saline. […]
# 35 days after administration of STZ, before administration, a 50% escape response threshold was measured, and the animals were divided into groups each including two animals such that the groups had the same average of escape response thresholds and the same average of body weights (severity of 50% escape response threshold: 8, severity of weight: 2). […]
# Pain was evaluated during a pre-breeding period, and 35 days after administration of STZ, before administration of a test substance and one, two, four, and six hours after administration of the test substance. […] From the result, a 50% escape response threshold was calculated by the following method for calculating a 50% escape response threshold (the 50% escape response threshold was rounded off to two decimal places). […]
# [2] = test system: rats (SD, male); test: Rota-rod test, effect on motor coordination; assay type: in vivo, rat; conditions: 60 mg/kg oral once, three hours after administration; for walking duration (time to fall from the rod): 10 rpm, cut-off 120 seconds
# Procedure: As an index for studying a central inhibitory effect and a muscle relaxation effect, an effect on motor coordination was studied using a Rota-rod test.
# In each of the groups, the number of samples was 8. Before a test, a rotation speed was set to 10 rpm using a mark on a rotating disk of Rota-rod (47700, UGO BASILE S.R.L.). A rat was gently placed on the rotating rod, and it was confirmed that the rat was placed on the rod stably. Thereafter, time (seconds) for the rat to fall from the rod was recorded. A cut-off value was 120 seconds. Trials were performed before administration of a test substance and three hours after the administration. At each measurement time, trials were performed up to three times. In a case where the cut-off value was reached, 120 seconds was taken as a walking duration at the time. In a case where the cut-off value was not reached in all three trials, an average of the three values was taken as a walking duration at the time.
Compound,"50% escape response threshold ([1]; 3 mg/mL group, two hours and four hours after administration)","50% escape response threshold ([1]; 10 mg/mL group, one hour to four hours after administration)","50% escape response threshold ([1]; 30 mg/mL group, one hour to four hours after administration)",effect on motor coordination ([2]; Rota-rod),walking duration (time to fall from the rod) [2]
"O=C1CC(=O)N(c2ccc(NC(=O)c3ccccc3I)cc2)c2ccc3ccccc3c2N1 [Example 48 (Compound), 5-[4-(2-iodobenzoylamino)phenyl]-1H-naphtho [1,2-b] [1,4]diazepine-2,4 (3H,5H)-dione]",significantly increased,significantly increased,significantly increased,no effect on motor coordination,120 s
"CC(C)C[C@H](CN)CC(=O)O [pregabalin, reference compound]",–,–,–,–,22 ± 5 s

# Reference: patent US12090158B2, “Medicine for diabetic peripheral neuropathy” (NIPPON CHEMIPHAR CO., LTD., priority 2018, dated 2024)
